These results are taken from PubChem BioAssay (NCI).

The structures appear in SMILES notation.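 Grown in 96-well plates, cells were treated for 48 hours with each compound at five concentrations. Insufficient inhibition: endpoint recorded as highest concentration tested. At the GI50, growth is halved. The concentration for full growth arrest is given as TGI.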 Bounds are passed on as bounds.

The subject of the first test is SNB-19 CNS. The experiment in a line: NCI anticancer screen, dose series, 48 h.
Regarding `COc1ccc(/C=C2\CCCC3=C2N=C2SC(C)=NN2C3c2ccc(OC)c(OC)c2)cc1OC` (stereo not given), the GI50 is 39.2 µM and the TGI was above 100 µM.

For the compound `CC(C)c1cc(-c2n[nH]c(=O)n2-c2ccc3c(ccn3C)c2)c(O)cc1O`, the GI50 is below 0.0236 µM and the TGI was above 48.5 µM.

Regarding `Cc1cc(N(CCCl)CCCl)ccc1C=Nc1ccc(-c2csc(Cc3ccccc3)n2)cc1`, the GI50 was 16.8 µM and the TGI is above 100 µM.

Regarding `COc1ccc(-c2c3c(N)nc(-c4ccncc4)nc3nc3c2c(C)nn3-c2ccccc2)cc1`, the GI50 was 65.1 µM and the TGI was above 100 µM.

On to `COc1ccc(-c2nc3sc4c(c3c(=O)[nH]2)CCCCCC4)cc1`, for which the GI50 is 4.74 µM and the TGI is above 33.2 µM.

Take `CC1(C)CC(=O)c2c(C(F)(F)F)nn(-c3ccc(C(N)=O)c(NC4CCC(OC(=O)CN)CC4)c3)c2C1` (stereo not given): the GI50 is 0.142 µM and the TGI is above 100 µM.

`CC1=C(C)C(=O)c2c(cc3ccccn23)C1=O` registered a TGI of 28.6 µM.

On to `Cc1ccccc1[P+](Cc1ccccc1)(c1ccccc1)c1ccccc1`, for which the GI50 is 2.8 µM and the TGI is above 100 µM.

In turn, `CC1SC2=NC3=C(c4ccccc4C3=O)C(c3ccc(F)cc3)N2C1=O` (stereo not given) had a TGI above 100 µM.

Turning to `CCCCCCCCN=C(N)c1ccc(N2CCN(c3ccc(C(N)=NCCCCCCCC)cc3)CC2)cc1`, the GI50 is 2.16 µM and the TGI is 14.6 µM.

`NNC(=O)/C(=C/c1ccc(Cl)cc1Cl)NC(=O)c1ccccc1` yielded a TGI above 100 µM.

In turn, `CC1C=C(OC(=O)c2ccccc2)C(=O)C(n2cc(F)c(=O)[nH]c2=O)O1` (stereo not given) came in with a TGI above 100 µM.

Compound `COc1cc(OC(C)=O)cc2c(OC(C)=O)ccc(OC(C)=O)c12` displayed a TGI above 100 µM.

`CCc1ccccc1NC(=O)C(=O)CC(=O)c1sc(Nc2ccccc2)nc1C` gave a TGI above 100 µM.

In the case of `O=c1cc(-c2ccccc2)[nH]c2ccccc12`, the GI50 is 0.881 µM and the TGI was above 100 µM.

Regarding `CCN(CC)c1ccc(C(=O)c2ccccc2C(=O)O)c(O)c1`, the TGI is above 100 µM.

As to `COc1cc2c(c(OC)c1)C1c3ccccc3NC(=O)N1CC2` (stereo not given), the GI50 is 7 µM and the TGI was above 100 µM.

Turning to `CC(CCC(=O)O)[C@H]1CCC2[C@@H]3CC[C@@H]4CC(O)CC[C@]4(C)C3CC[C@@]21C` (stereo not given in full), the GI50 was 56.5 µM and the TGI was above 100 µM.

On to `Cc1ccc(NC(=O)C(=O)C(C#N)c2ccccc2C)cc1C` (stereo not given), for which the TGI is above 100 µM.

For the next test, the system named is OVCAR-8 ovarian. The experiment in a line: NCI anticancer screen, dose series, 48 h.
As for `COc1ccc(/C=C2\CCCC3=C2N=C2SC(C)=NN2C3c2ccc(OC)c(OC)c2)cc1OC` (stereo not given), the GI50 was 6.31 µM and the TGI was above 100 µM.

For `CC(C)c1cc(-c2n[nH]c(=O)n2-c2ccc3c(ccn3C)c2)c(O)cc1O`, the GI50 was below 0.0232 µM and the TGI was above 83.7 µM.

Regarding `Cc1cc(N(CCCl)CCCl)ccc1C=Nc1ccc(-c2csc(Cc3ccccc3)n2)cc1`, the GI50 was 10.2 µM and the TGI is 46.2 µM.

Turning to `NCCOCCOCCNc1nc(Cc2ccccc2)nc(NCCCN2CCCC2=O)n1`, the GI50 is above 100 µM and the TGI is above 100 µM.

Consider `COc1ccc(-c2c3c(N)nc(-c4ccncc4)nc3nc3c2c(C)nn3-c2ccccc2)cc1`, for which the GI50 is 7.11 µM and the TGI was above 100 µM.

As for `COc1ccc(-c2nc3sc4c(c3c(=O)[nH]2)CCCCCC4)cc1`, the GI50 was 3.9 µM and the TGI is above 33.2 µM.

Turning to `CC1(C)CC(=O)c2c(C(F)(F)F)nn(-c3ccc(C(N)=O)c(NC4CCC(OC(=O)CN)CC4)c3)c2C1` (stereo not given), the GI50 is 0.0593 µM and the TGI is above 100 µM.

Compound `CC1=C(C)C(=O)c2c(cc3ccccn23)C1=O` came in with a TGI of 61.1 µM.

Turning to `Cc1ccccc1[P+](Cc1ccccc1)(c1ccccc1)c1ccccc1`, the GI50 was 1.92 µM and the TGI amounted to 13.2 µM.

`CC1SC2=NC3=C(c4ccccc4C3=O)C(c3ccc(F)cc3)N2C1=O` (stereo not given) yielded a TGI above 100 µM.

Turning to `CCCCCCCCN=C(N)c1ccc(N2CCN(c3ccc(C(N)=NCCCCCCCC)cc3)CC2)cc1`, the GI50 is 1.49 µM and the TGI came out at 6.65 µM.

As to `NNC(=O)/C(=C/c1ccc(Cl)cc1Cl)NC(=O)c1ccccc1`, the TGI was above 100 µM.

Take `CC1C=C(OC(=O)c2ccccc2)C(=O)C(n2cc(F)c(=O)[nH]c2=O)O1` (stereo not given): the TGI is above 100 µM.

`COc1cc(OC(C)=O)cc2c(OC(C)=O)ccc(OC(C)=O)c12`: the TGI was above 100 µM.

Turning to `CCc1ccccc1NC(=O)C(=O)CC(=O)c1sc(Nc2ccccc2)nc1C`, the TGI is above 100 µM.

With `O=c1cc(-c2ccccc2)[nH]c2ccccc12`, the GI50 was 4.18 µM and the TGI is above 100 µM.

With `CCN(CC)c1ccc(C(=O)c2ccccc2C(=O)O)c(O)c1`, the TGI was above 100 µM.

Take `COc1cc2c(c(OC)c1)C1c3ccccc3NC(=O)N1CC2` (stereo not given): the GI50 is 5.01 µM and the TGI was above 100 µM.

For the compound `CC(CCC(=O)O)[C@H]1CCC2[C@@H]3CC[C@@H]4CC(O)CC[C@]4(C)C3CC[C@@]21C` (stereo not given in full), the GI50 was 50 µM and the TGI was above 100 µM.

As to `Cc1ccc(NC(=O)C(=O)C(C#N)c2ccccc2C)cc1C` (stereo not given), the TGI is above 100 µM.

A further test relates to OVCAR-4 ovarian. The experiment in a line: NCI anticancer screen, dose series, 48 h.
As to `CC(C)c1cc(-c2n[nH]c(=O)n2-c2ccc3c(ccn3C)c2)c(O)cc1O`, the GI50 is 13 µM and the TGI was above 86.1 µM.

Regarding `Cc1cc(N(CCCl)CCCl)ccc1C=Nc1ccc(-c2csc(Cc3ccccc3)n2)cc1`, the GI50 was 8.01 µM and the TGI was above 100 µM.

With `NCCOCCOCCNc1nc(Cc2ccccc2)nc(NCCCN2CCCC2=O)n1`, the GI50 was above 100 µM and the TGI is above 100 µM.

Consider `COc1ccc(-c2c3c(N)nc(-c4ccncc4)nc3nc3c2c(C)nn3-c2ccccc2)cc1`, for which the GI50 is 3.41 µM and the TGI was 30.8 µM.
